Data from US20260364088A1, “TASL MIMICKING MOLECULES AND APPLICATIONS THEREOF” (CEMM - FORSCHUNGSZENTRUM FÜR MOLEKULARE MEDIZIN GMBH, priority 2022, published 2026).
Like-named read-outs stand apart in the source and are kept apart here.

Legend:
THP1 dual cell = molecular target: T1, THP1 dual cell (Homo sapiens, UniProt Q8N697); assay: THP1 DUAL/ISRE cell reporter assay (R848 stimulated); assay type: cell-based
T1 construct: R848 (TLR7/8)-stimulated ISRE reporter
Description: (§1) CAL-1, THP1 or human primary cells were incubated with dTASL1 and other identified compounds (or the corresponding volume of DMSO vehicle) for 24 h or 48 h at the indicated concentration and subsequently stimulated with R848 (5 μg/ml) for the indicated time. Supernatant or cells were recovered for ELISA, SDS-PAGE or microscopy-based analysis.
THP1 DUAL cells (1×10^5 cells per 96 well) were incubated with compounds for 24 h or 48 h, and subsequently stimulated for 20 h as indicated. Cell culture supernatant were collected, cleared of residual cells by centrifugation and analyzed for NF-κB and ISRE reporter activity according to the manufacturer's instructions. For experiments in 384-well format, compounds were pre-plated at defined concentrations and THP1 dual cells were added at 800 k/well concentration in […]. After incubation for 24 h or 48 h cells were stimulated with […] of a 25 μg/ml stock of R848 or 0.5 μg/ml Pam3CKS4 5× stocks as indicated for 20 h and detected by directly adding Quanti-Luc Plus (Invivogen) solution to the plates, according to the manufacturer's instructions and without adding stabilizer solution. Quanti-Blue detection was carried out according to the manifacturers instructions, with QB reagent and buffer (Invivogen) dissolved in 30 ml water, instead of the 100 ml used for standard detection.
(§2) Based on potency and kinetics, the compound C5 was selected for further characterization (FIG. 2E). C5 is an elongated molecule comprised of an aromatic 2-(4-ethoxyphenyl)-quinoline moiety followed by an amide bond and an aliphatic 2-methyl-1-propylpiperidine (FIG. 2F). To validate the scaffold and explore the chemical space at the aliphatic end of the compound, five analogues and an independently synthesized batch of C5 were obtained. […] Therefore the C5 compound was selected, which was named dTASL1 as its activity leads to TASL degradation, to assess effects on TLR7/8-induced signaling and responses.
The following compounds were assayed for their activity in the degradation assay (THP1 DUAL/ISRE cell reporter assay), as described herein: […]

CAL-1 pDCs = assay: ELISA of R848-induced responses in CAL-1 pDCs; assay type: cell-based, human
Description: as §1
All enzyme-linked immunosorbent assay (ELISA) experiments were performed using diluted cell supernatant according to manufacturer's instructions. ELISA kits for human IL-6 (no. 88-7066-88), human CCL2 (no. 88-7399-88) and human TNF (no. 88-7346-77) were from Invitrogen. ELISA kit for human interferon beta […] was from PBL Assay Science (41410-1).
as §2

[1] = test system: TNF production in human peripheral blood mononuclear cells (PBMCs); assay: TNF ELISA, R848-stimulated PBMCs; assay type: cell-based; conditions: bulk PBMCs, dTASL1 10 µM 24 h, R848 (5 μg/ml) 16 h, n=8
From the text: (§3) HEK293T cells and THP1 cells were purchased from ATCC, THP1 DUAL/ISRE reporter cell lines from Invivogen. CAL-1 cells were provided by T. Maeda (Nagasaki University). Cell lines—except for CAL-1—were authenticated by short tandem repeat profiling and regularly tested for mycoplasma contamination. Human primary PBMCs were isolated from the blood of anonymous healthy donors as well as SLE patients included in our biobank approved by the ethics committee of the Medical University of Vienna (EK2071/2020 and EK1075/2021). CD14^+ monocytes were purified by magnetic-activated cell sorting (Miltenyi Biotec, #130-050-201) according to the manufacturers protocol. Purity of CD14^+ cells ranged between 80.8% and 94.2% as determined by flow cytometry analysis. […]
(§4) Given that all evidence obtained seems to confirm the mechanistic precision of this chemical agent, any further consideration of assessing the therapeutic potential required evidence for activity in human primary cells relevant for SLE pathophysiology. The effect of dTASL1 in human peripheral blood mononuclear cells (PBMCs) was assessed. […] The impact of dTASL1 on TLR7/8 responses by directly monitoring IRF5 by confocal microscopy in B cells was assessed.

[2] = test system: TNF production in CD14^+ monocytes; assay: TNF ELISA, R848-stimulated purified CD14^+ monocytes; assay type: cell-based, human; conditions: purified CD14^+ cells, dTASL1 10 µM 24 h, R848 (5 μg/ml) 16 h, n=8
From the text: as §3, §4

NF-κB p65 = NF-κB p65 nuclear translocation in CD19^+ B cells of PBMCs (confocal microscopy); assay type: cell-based, human; conditions: primary B cells, dTASL1 10 µM 24 h, R848 (5 μg/ml) 3 h, n=7
Description: PBMCs were treated for 24 h with DMSO or dTASL1 (10 µM) and thereafter stimulated with 5 μg/ml R848 (Invivogen) for three hours or left unstimulated. Cells were harvested and stained for 30 minutes with PE-conjugated anti-CD19 antibodies (BioLegend, #302254, 1:200 in PBS/2% FBS) on ice and fixed with 4% formaldehyde in PBS for 15 minutes at RT. Permeabilization and staining for NF-κB p65 and IRF5 and counterstaining was performed as for CAL-1 and cells were seeded at a concentration of 3×10^4 cells/well onto 384-well imaging plates. Images were acquired on a PerkinElmer Opera Phenix HCS spinning disc confocal microscope and analyzed as described above with the additional identification of B cells based on CD19 membrane staining intensity. This protocol also applies to the cells obtained from SLE patients.
Given that all evidence obtained seems to confirm the mechanistic precision of this chemical agent, any further consideration of assessing the therapeutic potential required evidence for activity in human primary cells relevant for SLE pathophysiology. The effect of dTASL1 in human peripheral blood mononuclear cells (PBMCs) was assessed. […] It has been previously shown that the SLC15A4-TASL module was required for TNF production in primary human monocytes. […] The impact of dTASL1 on TLR7/8 responses by directly monitoring IRF5 by confocal microscopy in B cells was assessed.

T1 sequence (Q8N697 whole entry): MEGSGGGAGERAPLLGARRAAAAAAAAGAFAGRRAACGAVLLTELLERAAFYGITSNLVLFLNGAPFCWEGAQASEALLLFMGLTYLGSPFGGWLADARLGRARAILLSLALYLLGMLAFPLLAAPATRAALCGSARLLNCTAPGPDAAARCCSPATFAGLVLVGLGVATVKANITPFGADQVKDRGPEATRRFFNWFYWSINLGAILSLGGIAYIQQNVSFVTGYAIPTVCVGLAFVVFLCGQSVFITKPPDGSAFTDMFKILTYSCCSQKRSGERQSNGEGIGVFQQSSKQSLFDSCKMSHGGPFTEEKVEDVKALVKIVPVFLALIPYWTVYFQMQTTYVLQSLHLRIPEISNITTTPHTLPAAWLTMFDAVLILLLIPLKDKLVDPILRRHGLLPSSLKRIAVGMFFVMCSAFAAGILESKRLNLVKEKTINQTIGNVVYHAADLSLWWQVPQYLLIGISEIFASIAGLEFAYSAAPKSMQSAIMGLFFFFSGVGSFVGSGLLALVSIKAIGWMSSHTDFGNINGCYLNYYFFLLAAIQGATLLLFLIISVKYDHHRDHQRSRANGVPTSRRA

Compound: CCOc1ccc(-c2cc(C(=O)NCCCN3CCCCC3C)c3ccccc3n2)cc1 (stereo not shown) [dTASL1, 2-(4-ethoxyphenyl)-N-(3-(2-methylpiperidin-1-yl)propyl) quinoline-4-carboxamide]
- IC50 (THP1 dual cell; 24 h treatment before R848 stimulation, read-out: IC50 24 h): 2230 nM
- IC50 (THP1 dual cell; 48 h treatment before R848 stimulation, read-out: IC50 48 h): 933 nM
- R848-induced responses (CAL-1 pDCs; CAL-1 pDCs, 24 h pre-treatment, R848 (5 μg/ml) 16-24 h): strongly suppressed R848-induced responses
- downstream type I IFN production (CAL-1 pDCs; human monocytic and pDC cell lines): specifically impairs TLR7/8-induced IRF5 activation and downstream type I IFN production
- TNF production [1]: potently impaired TNF
- TNF production [2]: a significant reduction in this proinflammatory cytokine
- activation of NF-κB p65 (NF-κB p65): without affecting the activation of NF-κB p65
